Experimental data from US6399583B1, “Hybrid anthracyclines from genetically engineered streptomyces galilaeus strains, process for production and uses thereof” (Galilaeus Oy, priority 1998, dated 2002).
Like-named read-outs stand apart in the source and are kept apart here.

What was measured:
[1] = tested on: KLN-205 lung squamous cell carcinoma; assay: Cytotoxicity assay, ATP detection, KLN-205; format: cell-based, mouse; settings: KLN-205 cells in vitro, read-out: ED50 KLN-205
Description: (§1) The cytotoxicity tests were performed in 96-well microtiter plates (sterile white plates with clear bottom, Corning Costar Corporation, Cambridge, Mass., USA). The anthracyclines were pipetted into the plates in 10 μl of ethanol, pure ethanol was used for control plates. Daunorubicin and aclarubicin were used as positive controls. When the ethanol had evaporated, the cells were seeded into the plates in 100 μl of appropriate medium. The number of cells seeded per well was 2500 with MES-SA, 3000 with MES-SA/D×5, 3000 with LL/2, 2000 with B16-F0 and B16-F1, 2000 with KLN-205 and 8000 with MLTC-1. The ATP content of the cells was measured after incubating the cells for three days at 37° C. with 5% CO2.
(§2) The growth medium was removed by turning the plates over, and 200 μl of ATP extraction reagent, Somalyze, were added to the wells. The plates were then incubated for 30 minutes at room temperature. The ATP measurement was performed with Luminoskan luminometer (Labsystems Oy, Helsinki, Finland) at 22° C. 20 μl of ATP monitoring reagent containing luciferin and luciferase was dispensed, and an integral measurement of 10 s with 2 s lag time was performed for each well. All reagents used were supplied by Bio-Orbit Oy, Turku, Finland.
(§3) The direct luminometer output (in relative light units, RLUS) was used to calculate the cytotoxic effect. This light signal is directly proportional to the amount of […] in a wide range (determined with Bio-Orbit ATP standard, data not shown). On the other hand, the amount of ATP is directly proportional to the amount of living cells (Kangas et al., 1984). The results are expressed as percentages of the control value of untreated cells. An IC50 value (the drug concentration resulting to an ATP signal of 50% of the untreated control signal) was graphically estimated from the % of control vs. drug concentration plot.
(§4) H075-4a was also tested with several mouse cell lines in vitro (all were purchased from ATCC, Rockville, Md., USA): Lewis lung carcinoma (LL/2) (CRL-1642), B16-F0 melanoma (CRL-6322), B16-F1 melanoma (CRL-6323), KLN-205 lung squamous cell carcinoma (CRL-1453) and MLTC-1 leydig cell tumor (CRL-2065) using daunomycin, aclarubicin and H075-1a (MA 144U1) as references.
(§5) All cells grew as monolayers and were cultured at 37° C. with 5% CO2 according to ATCC standard instructions for each cell line: LL/2 in Dulbecco's modified Eagle's medium with 4.5 g/l glucose and 10% FCS, B16-F0 and B16-F1 in MEM (Eagle) in Earle's BSS with non-essential amino acids and 10% FCS, KLN-205 in MEM (Eagle) in Earle's BSS with non-essential amino acids and 10% FCS, MLTC-1 in RPMI 1640 with 25 mM HEPES and 10% FBS. All media were purchased from Gibco BRL, the serum was Gibco BRL Foetal Bovine Serum. […]

B16-F1 melanoma = assay: Cytotoxicity assay, ATP detection, B16-F1; format: cell-based, mouse; settings: B16-F1 cells in vitro, read-out: ED50 B16-F1
Description: as §1, §2, §3, §4, §5

MLTC-1 leydig cell tumor = assay: Cytotoxicity assay, ATP detection, MLTC-1; format: cell-based, mouse; settings: MLTC-1 cells in vitro, read-out: ED50 MLTC-1
Description: as §1, §2, §3, §4, §5

P388 leukemia = assay: Cytotoxic activity in vivo: P388 leukemia model; design: species or system mice; settings: 10^6 P388 cells i.p. day 0
Source text: P388 leukemia was maintained by serial intraperitoneal (i.p.) transplantations in DBA/2JBom female mice purchased from M & B A/S, Ry, Denmark. The animals were maintained at the facilities of Central Animal Laboratory, University of Turku. The management of the animal unit is based on and followed the guidelines: “European Convention for the protection of Vertebrate Animals used for Experimental and other Scientific Purposes, European Treaty Series No. 123 (EU No. 609/86), Official Journal of European Communities No. L 358, Strasbourg Nov. 24, 1986”, and “The Statute No. 1360/90 of the Finnish Law, Helsinki Dec. 21, 1990: Asetus kokeellisiin ja muihin tieteellisiin tarkoituksiin käytettävien selkärankaisten eläinten suojelemiseksi tehdyn eurooppalaisen yleissopimuksen voimaansaattamisesta. Suomen s{umlaut over (aa)}doskokoelma.”
The in vivo tests were started by injecting 10^6 P388 cells suspended in Dulbecco's phosphate buffered saline i.p. in mice on day 0. Groups of 3 mice were used. The drugs were administered i.p. on day 1 on the basis of individual body weight. The control group received vehicle (10% ethanol in Dulbecco's phosphate buffered saline).

[2] = tested on: Lewis lung carcinoma (LL/2); assay: Cytotoxicity assay, ATP detection, LL/2; format: cell-based, mouse; settings: LL/2 cells in vitro, read-out: ED50 LL/2
Description: as §1, §2, §3, §4, §5

[3] = tested on: L1210 mouse lymphocytic leukemia cells; assay: Flow cytometry (mode of action), cell cycle phases; format: cell-based; settings: for G1 (%) / G2 (%) / S + M (%) / Cells (1000/ml): L1210 cells, 24 h incubation; for G1 (%): percentage of cells in phase G1; for G2 (%): percentage of cells in phase G2; for S + M (%): percentage of cells in phases S + M; for Cells (1000/ml): starting cell number 46000 cells/ml
Description: L1210 mouse lymphocytic leukemia cells growing in suspension culture were maintained at exponential growth in Dulbecco's modified Eagle's medium with 4.5 g/l glucose and 10% FBS, at 37° C. with 5% CO2. The experiments were started by adding the ethanol-dissolved anthracyclines, in amounts yielding to the appropriate final concentrations, to 25 cm^2 cell culture flasks. After the ethanol had evaporated, 5 ml of an approximately 50 000 cells per ml suspension was added to the flasks. Flow cytometric analysis was made of the original cell suspension and after one, two and three days incubation with or without the drugs.
Cells were prepared for flow cytometric DNA analysis according to the method of Vindelov et al. (1985). The analysis was performed with an Epics XL flow cytometer (Coulter Corporation, Miami, Fla.). Samples were illuminated with a […] air-cooled argon ion laser (488 nm) and the fluorescence of propidium iodide was detected through 620-nm band pass filter. The number of cells in each sample was separately counted by adding an internal calibrator (50 μl of a solution containing 1×10^6 Fluoresbrite beads/ml) to 50 μl of cell suspension.
Based on the flow cytometric studies, the cell cycle phases for the cells studied could be detected. Phase G1 is the stage for RNA and protein synthesis, but not for replication. Transition from phase G1 to phase S means the initiation of replication, and the phase will last until all of the DNA has been replicated. The period from phase S up to mitosis (M) is phase G2.

B16-F0 melanoma = assay: Cytotoxicity assay, ATP detection, B16-F0; format: cell-based, mouse; settings: B16-F0 cells in vitro, read-out: ED50 B16-F0
Description: as §1, §2, §3, §4, §5

CCC1(O)CC(OC2CC(N(C)C)C(OC3CC(O)C(OC4CC(O)C(O)C(C)O4)C(C)O3)C(C)O2)c2c(O)c3c(c(O)c2C1C(=O)OC)C(=O)c1cccc(O)c1C3=O (centres unmarked) [Compound H075-4a]
EC50 [1]: 5 nM
EC50 (B16-F1 melanoma): 2 nM
EC50 (MLTC-1 leydig cell tumor): 60 nM
Median survival days (range) (P388 leukemia; 1 mg/kg i.p. on day 1): 14 (13-15) days
Median survival days (range) (P388 leukemia; 2 mg/kg i.p. on day 1): 14 (13-16) days
Median survival days (range) (P388 leukemia; 4 mg/kg i.p. on day 1): 15 (13-15) days
Median survival days (range) (P388 leukemia; 6 mg/kg i.p. on day 1): 15 (15-16) days
EC50 [2]: 8 nM
G1 (%) ([3]; concentration 1 × 10^−8M): 40%
G2 (%) ([3]; concentration 1 × 10^−8M): 12%
S + M (%) ([3]; concentration 1 × 10^−8M): 48%
Cells (1000/ml) ([3]; concentration 1 × 10^−8M): 88 1000/ml
G1 (%) ([3]; concentration 3.3 × 10^−8M): 45%
G2 (%) ([3]; concentration 3.3 × 10^−8M): 19%
S + M (%) ([3]; concentration 3.3 × 10^−8M): 36%
Cells (1000/ml) ([3]; concentration 3.3 × 10^−8M): 67 1000/ml
cell cycle phase in which cells are arrested ([3]; flow cytometric DNA analysis): arrested the cells in phase G1
EC50 (B16-F0 melanoma): 2 nM

COc1cccc2c1C(=O)c1c(O)c3c(c(O)c1C2=O)C[C@@](O)(C(C)=O)C[C@@H]3O[C@H]1C[C@H](N)[C@H](O)[C@H](C)O1 [Daunorubicin]
EC50 ([1]; Mus musculus): 90 nM
EC50 (B16-F1 melanoma; Mus musculus): 8 nM
EC50 (MLTC-1 leydig cell tumor; Mus musculus, Leydig): 900 nM
Median survival days (range) (P388 leukemia; 4 mg/kg i.p. on day 1): 14 (14-16) days
EC50 ([2]; Mus musculus): 15 nM
G1 (%) ([3]; concentration 1 × 10^−8M): 11%
G2 (%) ([3]; concentration 1 × 10^−8M): 38%
S + M (%) ([3]; concentration 1 × 10^−8M): 51%
Cells (1000/ml) ([3]; concentration 1 × 10^−8M): 66 1000/ml
G1 (%) ([3]; concentration 3.3 × 10^−8M): 6%
G2 (%) ([3]; concentration 3.3 × 10^−8M): 66%
S + M (%) ([3]; concentration 3.3 × 10^−8M): 27%
Cells (1000/ml) ([3]; concentration 3.3 × 10^−8M): 23 1000/ml
EC50 (B16-F0 melanoma; Mus musculus, B16F0): 20 nM
